Structures are written as SMILES. Counter-ions that a name gives are not always drawn.

Usually IC50 stands for the concentration at which inhibition is half-maximal. Read a low IC50 as greater potency.

For this test, the target named is T1, DPP-IV obtained from pig kidney (Sus scrofa, UniProt P22411).
T1 construct: DPP-IV obtained from pig kidney; from tissue; host or cells: pig kidney
T1 sequence (P22411 whole entry): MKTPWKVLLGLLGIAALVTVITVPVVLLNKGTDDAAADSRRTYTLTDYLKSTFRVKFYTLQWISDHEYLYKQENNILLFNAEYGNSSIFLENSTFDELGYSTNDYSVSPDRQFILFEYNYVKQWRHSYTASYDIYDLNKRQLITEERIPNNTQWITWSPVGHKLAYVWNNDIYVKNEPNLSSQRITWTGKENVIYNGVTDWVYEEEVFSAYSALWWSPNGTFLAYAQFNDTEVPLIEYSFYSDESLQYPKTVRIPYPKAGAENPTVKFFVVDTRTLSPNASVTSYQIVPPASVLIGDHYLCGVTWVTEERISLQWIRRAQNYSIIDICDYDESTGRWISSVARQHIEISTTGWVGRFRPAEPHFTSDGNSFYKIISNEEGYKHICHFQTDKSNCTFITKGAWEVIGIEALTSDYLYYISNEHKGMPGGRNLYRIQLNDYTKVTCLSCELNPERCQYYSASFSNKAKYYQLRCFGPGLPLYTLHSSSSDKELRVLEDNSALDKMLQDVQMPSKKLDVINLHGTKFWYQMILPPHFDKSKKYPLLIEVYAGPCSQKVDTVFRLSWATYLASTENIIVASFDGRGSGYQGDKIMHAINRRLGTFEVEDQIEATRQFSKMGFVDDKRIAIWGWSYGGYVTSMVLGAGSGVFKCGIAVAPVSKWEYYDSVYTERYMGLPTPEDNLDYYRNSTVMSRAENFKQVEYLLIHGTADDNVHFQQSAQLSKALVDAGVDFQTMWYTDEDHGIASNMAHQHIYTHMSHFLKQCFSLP
As to the kind of experiment: Measurement of DPPIV-inhibiting activity (in vitro experiment). The test is classed as biochemical. The note with it: DPP-IV from pig kidney 10 mU/mL, substrate Gly-Pro-p-nitroanilide 0.33 mM, 20 min preincubation, 20 min reaction, absorbance 405 nm. The procedure: DPP-IV obtained from pig kidney was dissolved in a reaction buffer (50 mM Tris-HCl pH7.4, 0.1% BSA) at 10 mU/mL, and 110 μL of this was used. 15 μL of the drug obtained from the aforementioned Examples was added, and this was incubated at room temperature for 20 minutes, and then 25 μL of a 2 mM solution of Gly-Pro-p-nitroanilide (final concentration 0.33 mM) was added to start the enzymatic reaction. The reaction time was 20 minutes, and 1 N phosphoric acid solution (25 μL) was added to stop the reaction.
For the compound `CC#CCn1c(=O)n(Cc2ccccc2C#N)c2ncnc(N3CCNCC3)c21` [Example 79, 2-[7-(2-Butynyl)-8-oxo-6-piperazin-1-yl-7,8-dihydropurin-9-ylmethyl]benzonitrile trifluoroacetic acid salt], the IC50 is 4.2 nM. That is a single-digit nanomolar value.

The compound `CC#CCn1c(=O)n(CC(N)=O)c2ncnc(N3CCNCC3)c21` [Example 71, 2-[7-(2-Butynyl)-8-oxo-6-(piperazin-1-yl)-7,8-dihydropurin-9-yl]acetamide trifluoroacetic acid salt] displayed an IC50 of 260 nM.

`C=Cc1ccc(-n2c(=O)n(CC#CC)c3c(N4CCNCC4)nc(OC)nc32)cc1` [Example 58, 7-(2-Butynyl)-2-methoxy-6-(piperazin-1-yl)-9-(4-vinyl-phenyl)-7,9-dihydropurin-8-one trifluoroacetic acid salt] had an IC50 of 15.6 nM.

For `CC#CCn1c(=O)n(CCCC#N)c2nc(Cl)nc(N3CCNCC3)c21` [Example 37, 4-[7-(2-Butynyl)-2-chloro-8-oxo-6-(piperazin-1-yl)-7,8-dihydropurin-9-yl]butyronitrile trifluoroacetic acid], it took 149 nM to reach half-maximal inhibition (IC50).

`N#Cc1ccccc1Cn1c(=O)n(Cc2ccccc2)c2c(N3CCNCC3)nccc21` [Example 80, 2-(3-Benzyl-2-oxo-4-piperazin-1-yl-2,3-dihydroimidazo[4.5-c]pyridin-1-ylmethyl)benzonitrile]: the midpoint of inhibition, the IC50, lay at 3010 nM.

Compound `C=CCn1c(=O)n(CC#CC)c2c(N3CCNCC3)nc(Oc3ccccc3C(N)=O)nc21` [Example 60, 2-[9-Allyl-7-(2-butynyl)-8-oxo-6-(piperazin-1-yl)-8,9-dihydro-7H-purin-2-yloxy]benzamide trifluoroacetic acid salt] showed an IC50 of 119 nM.

`CC#CCn1c(=O)n(C)c2nc(Oc3ccccc3C(N)=O)nc(N3CCNCC3)c21` [Example 14, 2-[7-(2-Butynyl)-9-methyl-8-oxo-6-(piperazin-1-yl)-8,9-dihydro-7H-purin-2-yloxy]benzamide trifluoroacetic acid salt] displayed a half-maximal inhibitory concentration (IC50) of 124 nM.

As for `CC#CCn1c(=O)n(CC(=O)O)c2nc(Cl)nc(N3CCNCC3)c21` [Example 31, [7-(2-Butynyl)-2-chloro-8-oxo-6-(piperazin-1-yl)-7,8-dihydropurin-9-yl]acetic acid trifluoroacetic acid salt], inhibition was half-maximal at 259 nM (IC50).

With `CC#CCn1c(=O)n(CCc2ccccc2)c2ncnc(N3CCNCC3)c21` [Example 74, 7-(2-Butynyl)-9-phenethyl-6-(piperazin-1-yl)-7,9-dihydropurin-8-one trifluoroacetic acid salt], half-maximal inhibition (IC50) was put at 14 nM.

As for `Cn1c(=O)n(Cc2ccccc2)c2c(N3CCNCC3)ncnc21` [Example 78, 7-Benzyl-9-methyl-6-(piperazin-1-yl)-7,9-dihydropurin-8-one trifluoroacetic acid salt], 3800 nM corresponded to half-maximal inhibition (IC50).

On to `CC#CCn1c(=O)n(C)c2nc(SC)nc(N3CCNCC3)c21` [Example 9, 7-(2-Butynyl)-2-methylsulfanyl-9-methyl-6-(piperazin-1-yl)-7,9-dihydropurin-8-one trifluoroacetic acid salt], for which the IC50 amounted to 214 nM.

As for `CC#CCn1c(=O)n(CCc2ccccc2)c2nc(Cl)nc(N3CCNCC3)c21` [Example 34, 7-(2-Butynyl)-2-chloro-9-(2-phenylethyl)-6-(piperazin-1-yl)-7,9-dihydropurin-8-one trifluoroacetic acid salt], the IC50 was found to be 14.8 nM.

Turning to `CC#CCn1c(=O)n(-c2ccc(OC)nc2)c2ncnc(N3CCNCC3)c21` [Example 66, 7-(2-Butynyl)-9-(6-methoxy-pyridin-3-yl)-6-(piperazin-1-yl)-7,9-dihydropurin-8-one trifluoroacetic acid salt], half-maximal inhibition (IC50) was put at 59.3 nM.

The compound `CC#CCn1c(=O)n(Cc2ccccc2)c2nc(Cl)nc(N3CCNCC3)c21` [Example 36, 9-Benzyl-7-(2-butynyl)-2-chloro-6-(piperazin-1-yl)-7,9-dihydropurin-8-one trifluoroacetic acid salt] showed an IC50 of 80.7 nM.

On to `CC(C)=CCn1c(=O)n(C)c2nc(Cl)nc(N3CCNCC3)c21` [Example 19, 2-Chloro-9-methyl-7-(3-methyl-2-butenyl)-6-(piperazin-1-yl)-7,9-dihydropurin-8-one trifluoroacetic acid salt], for which the IC50 stood at 5410 nM.

Compound `CC#CCn1c(=O)n(C)c2nc(NC)nc(N3CCNCC3)c21` [Example 5, 7-(2-Butynyl)-9-methyl-2-methylamino-6-(piperazin-1-yl)-7,9-dihydropurin-8-one trifluoroacetic acid salt] returned an IC50 of 172 nM.

`CC#CCn1c(=O)n(CC(N)=O)c2nc(Cl)nc(N3CCNCC3)c21` [Example 33, 2-[7-(2-Butynyl)-2-chloro-8-oxo-6-(piperazin-1-yl)-7,8-dihydropurin-9-yl]acetamide trifluoroacetic acid salt]: the midpoint of inhibition, the IC50, lay at 163 nM.

Compound `CC#CCn1c(=O)n(-c2ccsc2)c2nc(OC)nc(N3CCNCC3)c21` [Example 57, 7-(2-Butynyl)-9-(thiophen-3-yl)-2-methoxy-6-(piperazin-1-yl)-7,9-dihydropurin-8-one trifluoroacetic acid salt] showed an IC50 of 77.5 nM.

The compound `CC#CCn1c(=O)n(-c2ccc(C#N)cc2)c2nc(Cl)nc(N3CCNCC3)c21` [Example 42, 4-[7-(2-Butynyl)-2-chloro-8-oxo-6-(piperazin-1-yl)-7,8-dihydropurin-9-yl]benzonitrile trifluoroacetic acid salt] showed an IC50 of 42.5 nM.

The compound `CC#CCOc1nc(N2CCNCC2)c2c(n1)n(C)c(=O)n2CC#CC` [Example 16, 7-(2-Butynyl)-2-(2-butynyloxy)-9-methyl-6-(piperazin-1-yl)-7,9-dihydropurin-8-one trifluoroacetic acid salt] yielded an IC50 of 364 nM.

The compound `CC#CCn1c(=O)n(-c2ccsc2)c2nc(Cl)nc(N3CCNCC3)c21` [Example 45, 7-(2-Butynyl)-2-chloro-6-(piperazin-1-yl)-9-(thiophen-3-yl)-7,9-dihydropurin-8-one trifluoroacetic acid salt] registered an IC50 of 130 nM.

In the case of `CC#CCn1c(=O)n(C)c2nc(N)nc(N3CCNCC3)c21` [Example 6, 2-Amino-7-(2-butynyl)-9-methyl-6-(piperazin-1-yl)-7,9-dihydropurin-8-one trifluoroacetic acid salt], the IC50 came to 450 nM.

In turn, `CC#CCn1c(=O)n(Cc2ccc(C#N)cc2)c2nc(OC)nc(N3CCNCC3)c21` [Example 49, 4-[7-(2-Butynyl)-2-methoxy-8-oxo-6-(piperazin-1-yl)-7,8-dihydropurin-9-ylmethyl]benzonitrile trifluoroacetic acid salt] registered an IC50 of 40 nM.

For the compound `CC#CCn1c(=O)n(-c2cccnc2)c2nc(OC)nc(N3CCNCC3)c21` [Example 55, 7-(2-Butynyl)-2-methoxy-6-(piperazin-1-yl)-9-(pyridin-3-yl)-7,9-dihydropurin-8-one trifluoroacetic acid salt], the half-maximal inhibitory concentration (IC50) stood at 37.2 nM. This IC50 and that of the compound before are within 1.5-fold of each other.

`CC#CCn1c(=O)n(Cc2ccccc2C(N)=O)c2nc(Cl)nc(N3CCNCC3)c21` [Example 39, 2-[7-(2-Butynyl)-2-chloro-8-oxo-6-(piperazin-1-yl)-7,8-dihydropurin-9-ylmethyl]benzamide trifluoroacetic acid salt] yielded an IC50 of 32.3 nM.

The compound `CC#CCn1c(=O)[nH]c2ncnc(N3CCNCC3)c21` [Example 75, 7-(2-Butynyl)-6-(piperazin-1-yl)-7,9-dihydropurin-8-one trifluoroacetic acid salt] displayed an IC50 of 921 nM.

Consider `CC#CCn1c(=O)n(-c2ccoc2)c2ncnc(N3CCNCC3)c21` [Example 63, 7-(2-Butynyl)-9-(furan-3-yl)-6-(piperazin-1-yl)-7,9-dihydropurin-8-one trifluoroacetic acid salt], for which the IC50 was determined as 146 nM. This IC50 lies about 6.3-fold lower than the previous one.

In turn, `CC#CCn1c(=O)n(-c2ccc(OC)cc2)c2nc(Cl)nc(N3CCNCC3)c21` [Example 43, 7-(2-Butynyl)-2-chloro-9-(4-methoxyphenyl)-6-(piperazin-1-yl)-7,9-dihydropurin-8-one trifluoroacetic acid salt] returned an IC50 of 67.8 nM.

The compound `CCC#CCn1c(=O)n(C)c2nc(Cl)nc(N3CCNCC3)c21` [Example 18, 2-Chloro-9-methyl-7-(2-pentynyl)-6-(piperazin-1-yl)-7,9-dihydropurin-8-one trifluoroacetic acid salt] yielded an IC50 of 972 nM.

For the origin of these results see patent publication US7524847B2, “Fused 1,3-dihydro-imidazole ring compounds” (Eisai R&D Management Co., Ltd., priority 2002, dated 2009).
